According to patent publication US10246498B2, “Genetically encoded histone reporter allele constructs” (THE JOHNS HOPKINS UNIVERSITY, priority 2014, dated 2019):
“Also recorded” adds a separate entry of the source.

Tests used:
[1] = system: H3K4me3 in the GCL; assay: Immunofluorescence of H3K4me3 in dentate gyrus GCL after oral AR-42; format: in vivo, mouse
From the text: Kmt2d^+/βGeo mice, also named Mll2Gt^(RRt024)Byg, were acquired from Bay Genomics (University of California). All experimental mice were on a mixed C57BL/6J and 129/SvEv background. Expected Mendelian ratios were observed when heterozygous animals were bred to wild-type. In heterozygous crosses, however, there was uniform embryonic lethality of homozygotes by ED12, the earliest developmental stage assayed. For treatment with AR-42, mice were orally gavaged daily with drug (Selleck Chemicals, Houston, Tex.) solubilized in vehicle (0.5% methylcellulose, 0.1% Tween-80, water) or with vehicle alone. Drug delivery information was kindly provided by Drs. […] For quantification of DCX positive cells, doses of 0, 5, 10 and 25 mg/kg/day were used. […] Maxillary protrusion was evaluated by ten investigators blinded to genotype and they were asked to rate maxillary protrusion on radiographs as either large (2) or small (1). […]
Z-stack images of slides were taken at either 10× using Zeiss Axiovert 200 with 510-Meta confocal module (Carl Zeiss, Jena, GER) or 25× using Zeiss AxioExaminer with 710NLO-Meta multiphoton (Carl Zeiss, Jena, GER). From 10× pictures, the GCL was highlighted and fluorescent intensities for both DAPI and H3K4me3 were measured at the midpoint of the entire z-stack (Zen software, Carl Zeiss, Jena, GER) with the value for Kmt2d^+/+ animals set equal to one. […]

[2] = system: genome-wide H3K4me3; assay: ChIP-seq of H3K4me3 in spleen cells of treated mice; format: in vivo, mouse; conditions: 10 mg/kg/day, spleen cells of Kmt2d+/βGeo mice
Method: Spleens were dissected from eight mice, four from each kmt2d genotype (+/βGeo or +/+) where half of each genotype was treated with AR-42 and half with vehicle only. Spleens were minced and passed through a 40 μm cell strainer to obtain single cell suspensions. 10 million cells were used for each ChIP-seq experiment following the native chromatin immunoprecipitation protocol, as previously described (Gilfillan et al. (2012) BMC Genomics 13:645), using a ChIP-grade antibody against H3K4me3 (9727, Cell Signaling Technology, Beverly, Mass.).
Sequencing was performed using a MiSeq system (Illumina, San Diego, Calif.). 4.8-9.6 million paired-end 26 bp reads were obtained per sample (Table 1; nReads=number of reads, alignRate=fraction aligned to genome; FRIP=fraction of reads in peaks). Reads were aligned to the m. musculus genome, version mm10, using Bowtie 2 (Langmead and Salzberg (2012) Nat. Methods. 9: 357-9). Each sample was examined with regard to alignment rate as well as FRIP (fraction of reads in peaks), a measure of the ChIP efficiency (Table 1). […] For analysis, reads were merged into one meta-sample and peak calling was performed using MACS version 1.4.2 (Zhang et al. (2008) Genome Biol. 9: R137). […] This created a peak by sample matrix of read counts. […] Fold change and overall abundance was calculated as per edgeR. […]

Q: CC(C)[C@H](C(=O)Nc1ccc(C(=O)NO)cc1)c1ccccc1 [AR-42] was tested. Which “H3K4me3 in the GCL” value ([1]; 25 mg/kg/day, oral, two weeks) did it give?
A: increased H3K4 trimethylation; also recorded: increased H3K4me3

Q: And the “H3K4me3 in the GCL” value ([1]; 5 and 10 mg/kg/day, both genotypes)?
A: dose-dependent increase in H3K4me3

Q: What about the “genome-wide deficiency of H3K4me3 (ChIP-seq)” value [2] of the same compound?
A: genome-wide increase in H3K4me3; also recorded: overcorrection; also recorded: improved; also recorded: recovered; also recorded: normalized (but somewhat over corrected)
